Consider 15 compounds from US10759799B2, “Indazole containing macrocycles and therapeutic uses thereof” (Samumed, LLC, priority 2018, dated 2020).

Molecules are shown by their SMILES. pEC50: −log10 of the molar value.

In test [1] the target is recombinant DYRK1A kinase (Homo sapiens (Human), UniProt Q13627). The test is described as follows: DYRK1A kinase assay (Ser/Thr 18 peptide Z-lyte, FRET). The class given is biochemical. The settings on record: 30 μM ATP, one hour at room temperature, read-out: EC50 (μM) (IC50 per method). The source says:
Representative compounds were screened using the assay procedure for DYRK1A kinase activity as described below.
The DYRK1A kinase assay was run using the Ser/Thr 18 peptide Z-lyte assay kit according to manufacturer's instructions (Life Technologies—a Division of Thermo-Fisher). This is a non-radioactive assay using fluorescence resonance energy transfer (FRET) between coumarin and fluorescein to detect kinase activity which is represented as a ratio of coumarin emission/fluorescein emission.
Briefly, recombinant DYRK1A kinase, ATP and Ser/Thr peptide 18 were prepared in 1× Kinase buffer to final concentrations of 0.19 μg/mL, 30 μM, and 4 μM respectively. The mixture was allowed to incubate with the representative compounds for one hour at room temperature. All reactions were performed in duplicate. Unphosphorylated (“0% Control”) and phosphorylated (“100% control”) forms of Ser/Thr 18 served as control reactions. Additionally, an 11-point dose-response curve of Staurosporine (1 uM top) was run to serve as a positive compound control.
After incubation, Development Reagent A was diluted in Development Buffer then added to the reaction and allowed to further incubate for one hour at room temperature. The plate was read at Ex 400 Em 455 to detect the coumarin signal and Ex 400 Em 520 to measure the signal (EnVision Multilabel Plate Reader, PerkinElmer).
The Emission ratio (Em) was calculated as a ratio of the coumarin (C) emission signal (at 445 nm)/Fluorescein (F) emission signal (at 520 nm). The percent phosphorylation was then calculated using the following formula: [1−((Em ratio×F100%)−C100%)/((C0%−C100%)+(Em ratio×(F100%−F0%)))].

Test [2] deals with Wnt activity (Sp5-Luc reporter, SW480 colon carcinoma cells). The test is described as follows: Sp5-Luc reporter gene screening assay for Wnt activity in SW480 cells. Conditions: Homo sapiens; Sp5-Luc reporter, SW480 cells, 36 to 48 hours. The class given is cell-based. The source says: The screening assay for Wnt activity is described as follows. Reporter cell lines can be generated by stably transducing cancer cell lines (e.g., colon cancer) or primary cells (e.g., IEC-6 intestinal cells) with a lentiviral construct that includes a Wnt-responsive promoter driving expression of the firefly luciferase gene.
SW480 colon carcinoma cells were transduced with a lentiviral vector expressing luciferase with a human Sp5 promoter consisting of a sequence of eight TCF/LEF binding sites. SW480 cells stably expressing the Sp5-Luc reporter gene and a hygromycin resistance gene were selected by treatment with 150 μg/mL of hygromycin for 7 days. These stably transduced SW480 cells were expanded in cell culture and used for all further screening activities. […] For Sp5-Luc reporter gene assays, the cells were plated at 4,000 cells/well in 384-well plates with a DMEM medium containing 1% fetal bovine serum, and 1% Penicillin-Streptomycin and incubated for 36 to 48 hours at 37° C. and 5% CO2. Following incubation, 15 μl of BriteLite Plus luminescence reagent (Perkin Elmer) was added to each well of the 384-well assay plates. The plates were placed on an orbital shaker for 2 min and then luminescence was quantified using the Envision (Perkin Elmer) plate reader. Readings were normalized to DMSO only treated cells, and normalized activities were utilized for EC50 calculations using the dose-response log (inhibitor) vs. response-variable slope (four parameters) nonlinear regression feature available in GraphPad Prism 5.0 (or Dotmatics).
For orientation: In a reporter assay the amount or activity of a reporter protein is the signal.

The subject of test [3] is primary human fibroblasts derived from IPF patients (LL29 cells). The test is described as follows: Inhibition of TGF-β1 induced fibrosis (αSMA staining) in LL29 fibroblasts. The class given is cell-based. Conditions: Fibroblast, 96 h, LL29 cells, TGF-β1 20 ng/mL, 4 days, % αSMA positive cells. As to the method: Representative compounds were screened using primary human fibroblasts (derived from IPF patients) treated with TGF-β1 to determine their ability to inhibit the fibrotic process.
LL29 cells were plated at 1,500 cells/well in 70 μL/well F12 medium supplemented with 1% Fetal Bovine Serum. […] Wells treated with TGF-β1 and containing DMSO were used as positive control, and cells with only DMSO were negative control. […] Following incubation for 4 days, SYTOX green nucleic acid stain (Life Technologies [Thermo Fisher Scientific]) was added to the wells at a final concentration of 1 μM and incubated at room temperature for 30 min.

The test system of test [4] is primary human mesenchymal stem cells (hMSCs). The test is described as follows: Chondrogenesis induction in hMSCs (Rhodamine B staining intensity, EC50). The class given is cell-based. The settings on record: 6 days, Rhodamine B staining intensity of nodules. An excerpt:
Representative compounds were screened using primary human mesenchymal stem cells (hMSCs) to determine their ability to induce chondrogenesis (process by which cartilage is developed).
Primary human mesenchymal stem cells (hMSCs) were purchased from Lonza (Walkersville, Md.) and expanded in Mesenchymal Stem Cell Growth Media (Lonza). Cells between passage 2 and 4 were used for the experiments.
To image chondrogenic nodules, the cells were fixed using 4% formaldehyde (Electron Microscopy Sciences), and stained with 2 μg/mL Rhodamine B (Sigma-Aldrich) and 20 μM Nile Red (Sigma-Aldrich) [Johnson K., et. al, A Stem Cell-Based Approach to Cartilage Repair, Science, (2012), 336(6082). […] Rhodamine B staining intensity of nodules in each well was normalized to the average of 3 DMSO treated wells on the same plate using Excel (Microsoft Inc.). The normalized averages (fold change over DMSO) of 3 replicate wells for each compound concentration were calculated. EC50 values were calculated using non-linear regression curve fitting in Prism 8 (Graphpad Inc.). Due to solubility limitations of some of the compounds, curve fitting was incomplete, and the highest observed activity was extrapolated to the insoluble doses for accurate EC50 determinations.
EC50 values are reported. Further, using TGF-β3 as a positive control, the concentration of representative compounds required to induce equivalent levels of chondrogenesis is reported. In addition, the maximum activity of each compound and the respective dose that each compound reached maximum chondrogenesis activity is reported.

Broadly, the IC50 is the concentration that gives 50% inhibition. As usually defined, the pEC50 is −log10 of the EC50, conventionally taken in molar units. A low value points to a large EC50. As for `O=C1CCc2cccc(c2)-c2cccc3[nH]c(nc23)-c2n[nH]c3ccc(cc23)-c2cncc(c2)N1` [Compound 1], the IC50 in test [1] stood at 0.266 µM. Moreover, the figures for the pEC50 in test [2], in test [3] and in test [4] were 7.66, 7.62 and 7.92, respectively.
In the same order, the values of `O=C1CCc2cccc(c2)-c2nccc3[nH]c(nc23)-c2n[nH]c3ccc(cc23)-c2cncc(c2)N1` [Compound 2, (Z)-2^1H,3^1H-5-Aza-2(4,2)-imidazo[4,5-c]pyridina-3 (3,5)-indazola-4(3,5)-pyridina-1(1,3)-benzenacyclooctaphan-6-one] are 0.006 µM, 7.66, 6.65 and 7.24.
In the same order, the values of `O=C1CCc2cccc(c2)-c2cncc3[nH]c(nc23)-c2n[nH]c3ccc(cc23)-c2cncc(c2)N1` [Compound 3, (Z)-2^3H,3^1H-5-Aza-2(7,2)-imidazo[4,5-c]pyridina-3 (3,5)-indazola-4(3,5)-pyridina-1(1,3)-benzenacyclooctaphan-6-one] are 0.01 µM, 7.28, 7.38 and 7.55.
`O=C1CCc2cccc(c2)-c2cccc3[nH]c(nc23)-c2n[nH]c3ncc(cc23)-c2cncc(c2)N1` [Compound 5, (Z)-2^1H,3^1H-8-Aza-2(5,3)-pyrazolo[3,4-b]pyridina-3(2,4)-benzo[d]imidazola-1(3,5)-pyridina-4(1,3)-benzenacyclooctaphan-7-one]: the half-inhibitory concentration (IC50) in test [1] worked out at 0.709 µM. Also, the values for the pEC50 in test [2], in test [3] and in test [4] were 6.91, 7.11 and 6.67, respectively.
For `O=C1CCc2cccc(c2)-c2cccc3[nH]c(nc23)-c2n[nH]c3cnc(cc23)-c2cncc(c2)N1` [Compound 6, (Z)-2^1H,3^1H-8-Aza-2(5,3)-pyrazolo[3,4-c]pyridina-3(2,4)-benzo[d]imidazola-1(3,5)-pyridina-4(1,3)-benzenacyclooctaphan-7-one], in that order: 0.096 µM, 8.05, 7.54 and 7.80.
Take `O=C1CCc2cccc(c2)-c2cccc3[nH]c(nc23)-c2n[nH]c3ccc(nc23)-c2cncc(c2)N1` [Compound 7, (Z)-2^1H,3^1H-8-Aza-2(5,3)-pyrazolo[4,3-b]pyridina-3 (2,4)-benzo[d]imidazola-1(3,5)-pyridina-4(1,3)-benzenacyclooctaphan-7-one]: the IC50 in test [1] is over 10 µM. The values for the negative logarithm of the EC50 (pEC50) in test [2], in test [3] and in test [4] were 6.36, 6.25 and 7.66, respectively.
Consider `c1cc2cc(c1)-c1cncc3[nH]c(nc13)-c1n[nH]c3ccc(cc13)-c1cncc(c1)CNC2` [Compound 8, (Z)-2^3H,3H-6-Aza-2(7,2)-imidazo[4,5-c]pyridina-3(3,5)-indazola-4(3,5)-pyridina-1(1,3)-benzenacycloheptaphane], for which the IC50 in test [1] is 0.003 µM. In addition, the figures for the negative-log EC50 (pEC50) in test [2], in test [3] and in test [4] were 7.38, 7.72 and 6.69, respectively.
`c1cc2cc(c1)-c1cccc3[nH]c(nc13)-c1n[nH]c3ccc(cc13)-c1cncc(c1)CNC2` [Compound 10, (Z)-2^1H,3^1H-6-Aza-2(5,3),3(2,4)-diindazola-1(3,5)-pyridina-4(1,3)-benzenacycloheptaphane]: the IC50 in test [1] stood at 0.018 µM. Further, the negative logarithm of the EC50 (pEC50) is 7.96 in test [2], 5.00 in test [3] and 8.00 in test [4].
Regarding `Cn1ncc2c1CNCc1cccc(c1)-c1cccc3[nH]c(nc13)-c1n[nH]c3ccc-2cc13` [Compound 15, (Z)-Methyl-1^1H,2^1H,3^1H-6-aza-2(5,3),3 (2,4)-diindazola-1 (4,5)-pyrazola-4(1,3)-benzenacycloheptaphane], in test [1], the IC50 was determined as 0.111 µM. Further, the pEC50 was 7.23 in test [2], 7.06 in test [3] and 7.29 in test [4].
In the case of `CN1Cc2cncc(c2)-c2ccc3[nH]nc(c3c2)-c2nc3c(cccc3[nH]2)-c2cccc(c2)C1` [Compound 22, (Z)-6-Methyl-2^1H,3^1H-6-aza-2(5,3),3(2,4)-diindazola-1(3,5)-pyridina-4(1,3)-benzenacycloheptaphane], the IC50 in test [1] worked out at 0.068 µM. The pEC50 in test [2] was 8.00; in test [3] it was 7.46; in test [4], 6.10.
For `CN1Cc2cccc(c2)-c2cccc3[nH]c(nc23)-c2n[nH]c3ccc(cc23)-c2cnn(C)c2C1` [Compound 29], the IC50 in test [1] stood at 0.412 µM. The negative logarithm of the EC50 (pEC50) in test [2] is 7.09; in test [3], 7.11; in test [4], 7.16.
Consider `O=C1COc2cccc(c2)-c2cncc3[nH]c(nc23)-c2n[nH]c3ccc(cc23)-c2cncc(c2)N1` [Compound 38, (Z)-2^3H,3^1H-8-Oxa-5-aza-2(7,2)-imidazo[4,5-c]pyridina-3(3,5)-indazola-4(3,5)-pyridina-1(1,3)-benzenacyclooctaphan-6-one], for which the IC50 in test [1] worked out at 0.005 µM. Moreover, the pEC50 is 7.06 in test [2], 7.42 in test [3] and 7.44 in test [4].
For `CN1CCCn2cc(nn2)-c2cncc3[nH]c(nc23)-c2n[nH]c3ccc(cc23)-c2cncc(c2)C1` [Compound 45, (1^4Z,2^1Z)-6-Methyl-1 ^1H,2^3H,3^1H-6-aza-2(7,2)-imidazo[4,5-c]pyridina-3(3,5)-indazola-4(3,5)-pyridina-1(4,1)-triazolacyclononaphane], in that order: 0.004 µM, 6.47, 5.81 and 7.66.
On to `CN1CCCCN(C)c2nccc3[nH]c(nc23)-c2n[nH]c3ccc(cc23)-c2cncc(c2)C1` [Compound 51, (Z)-5,10-Dimethyl-1H,2^1H-5,10-diaza-1(2,4)-imidazo[4,5-c]pyridina-2(3,5)-indazola-3(3,5)-pyridinacyclodecaphane], for which, in test [1], the concentration for half-maximal inhibition (IC50) came out at 0.002 µM. Besides, the pEC50 is 6.24 in test [2], 6.69 in test [3] and 7.03 in test [4].
In the same order, the values of `c1cc2cc(c1)-c1cccc3[nH]c(nc13)-c1n[nH]c3ccc(cc13)-c1cncc(c1)OCCC2` [Compound 57] are over 10 µM, 6.32, 6.20 and 7.60.
